Data set [1] has as its system NCI-H460 human lung carcinoma. The note with it: H460 tumor cells.
In data set [2] the test system is HT-29 human CRC xenograft tumor model. The note with it: associated with increased cathepsin B activity (E2 supplemented).
Protocol: Antitumor activity parameters were determined as follows: • 1. Tumor weight inhibition % (TWI %) equals 100 minus (TW of treated divided by TW of control) times 100, which was evaluated at day 60 from pellet implant. • 2. Tumor growth delay (TGD): TGD equals TG Treated minus TG Control, where TG is the mean time, in days, for the tumor to reach a weight of 1 gram (g). • 3. Log cell kill (LCK) was calculated by the formula: LCK equals ((TGD 1 g) divided by 3.32) times DT, where DT is the time (days) necessary for the tumor to double in volume, in control and experimental groups.
Statistical analyses were performed using one-way ANOVA Bonferroni post test.
In data set [3] the test system is NSCLC. Put plainly: Composite analysis of two phase III studies (STELLAR 3 and STELLAR 4): survival by sex and age, PPX vs control. The format is in vivo, human. Particulars: for HR: PPX vs CONTROL. As for the experimental part: Two phase III studies, enrolling a total of 781 patients with NSCLC and a poor performance status (PS2), were conducted. […] In order to study the effect of sex and estrogen on survival among the various treatment groups, the results from both phase III clinical trials were combined and a composite analysis performed.
Functional menopausal status was assigned based on age and pretreatment estradiol levels, when available. The study was a composite of results from both clinical studies.

Data set [4] has as its system NSCLC. Put plainly: Phase III study (STELLAR 3): CT-2103/PPX + carboplatin vs paclitaxel + carboplatin, overall survival by estrogen level. It is filed as in vivo, human. The note with it: CT-2103 210 mg/m^2 + carboplatin AUC 6 vs paclitaxel 225 mg/m^2 + carboplatin AUC 6. The text has this: The experiments and results presented in example 1 describe the correlation between estrogen levels and treatment with CT-2103 versus paclitaxel, as measured by overall survival (OS). The data depicted in FIGS. 1 and 2 were derived from a multinational, phase III, open-label study. […] Randomization was stratified to minimize potential imbalances between the 2 treatment arms. After they were selected for the study, patients were stratified by disease stage (IV vs other), gender, geographic location (US vs. Western Europe and Canada vs. rest of the world), and history of brain metastases (yes vs. no).
From the initial sample set, a subset consisting of either high or low estrogen women was analyzed. […] Estrogen levels in women were determined by a competitive immunoassay (e.g., DPC […] 2000 Analyzer, NY; DPC […] Analyzer, Ireland). […]
Patients received CT-2103/carboplatin or paclitaxel/carboplatin, by intravenous infusion, on day 1 of each 21-day cycle for a total of 6 cycles. Toxicities were evaluated at each patient visit. Hematology, clinical chemistry, and coagulation parameters were evaluated before and during the study period. […] The efficacy and safety outcomes of this study were monitored by an independent Data Monitoring Committee (DMC).
Efficacy of the treatments was determined by evaluation of tumor burden according to RECIST. […]

Data set [5] deals with HT-29 human CRC xenograft tumor model. Put plainly: Effect of circulating estrogen on tumor growth. The format is in vivo, female CD nu/nu mice. Particulars: increased levels of estrogen, s.c. controlled release pellets 0.17, 0.36, 0.72 mg/60 days.
Data set [6] concerns the target T1, ERβ (Homo sapiens, UniProt Q92731).
T1 construct: proteins were extracted by homogenization in RIPA buffer; from tissue; host or cells: HT-29 and H460 human xenograft tumours in female CD nu/nu mice
Put plainly: ERβ expression (western blot) and activation (RT-PCR of E-Cadherin, Id-2) in xenograft tumors. It is filed as in vivo. Particulars: HT-29 and H460 xenograft tumors, E2 supplements. As for the experimental part:
ERα, ERβ, E-Cadherin and Id-2 gene expression was determined by RT-PCR, relating their RNA expression to that of GAPDH gene. Total RNA extracted from tumors was reversely transcribed by Thermoscript RT-PCR System (INVITROGEN). The cDNA generated was used as template for PCR with primers specific for ERα and β, E-Cadherin and Id-2.
Western blot analysis was performed as follows: proteins were extracted by homogenization in RIPA buffer and their content was determined by Bio-Rad Protein Assay. Protein aliquots were separated by size on 10% SDS-PAGE and transferred to nitrocellulose membrane. Immunodetection was performed using: anti-ERa Polyclonal Ab (HC-20, Santa Cruz Biotechnologies), […] Polyclonal Ab (06-629, Upstate Biotechnologies), anti-α-Actin (Sigma), and anti-α-Tubulin (Santa CruzBiotechnologies).
The effect of estradiol on ERβ expression in HT-29 human CRC and H460 human NSCLC was analyzed by western blot (FIGS. 9 and 10, respectively.).
The effect of estradiol on ERβ activation in HT-29 human CRC and H460 human NSCLC cells was analyzed by RT-PCR, where increased expression of the E-Cadherin gene (in HT-29 cells) and increased expression of the Id-2 gene (in H460 cells) is indicative of ERP activation (FIGS. 11 and 12, respectively.).
In general terms: A western blot detects proteins with antibodies after separation by electrophoresis.

Data set [7] relates to cathepsin B. Put plainly: Cathepsin B activity assay in tumor homogenate (Z-Arg-Arg-AMC). The format is in vivo. The note with it: HT-29 tumors; increased levels of estrogen, s.c. pellets. As for the experimental part:
Cathepsin B activity assay was performed as follows: proteins were extracted by homogenization in cathepsin B buffer in ratio of 1 ml of buffer per 100 mg of tissue. The test utilized the ability of cathepsin B to digest the synthetic substrate Z-Arg-Arg-AMC. Released AMC was determined fluorometrically at excitation wavelength 390 nm and emission wave-length 460 nm. The activity of cathepsin B was quantified versus an AMC standard curve.

From US20070167349A1, “Estrogen cancer therapy” (Cell Therapeutics, Inc., priority 2005, published 2007) come the findings set out here.

T1 sequence (Q92731 whole entry): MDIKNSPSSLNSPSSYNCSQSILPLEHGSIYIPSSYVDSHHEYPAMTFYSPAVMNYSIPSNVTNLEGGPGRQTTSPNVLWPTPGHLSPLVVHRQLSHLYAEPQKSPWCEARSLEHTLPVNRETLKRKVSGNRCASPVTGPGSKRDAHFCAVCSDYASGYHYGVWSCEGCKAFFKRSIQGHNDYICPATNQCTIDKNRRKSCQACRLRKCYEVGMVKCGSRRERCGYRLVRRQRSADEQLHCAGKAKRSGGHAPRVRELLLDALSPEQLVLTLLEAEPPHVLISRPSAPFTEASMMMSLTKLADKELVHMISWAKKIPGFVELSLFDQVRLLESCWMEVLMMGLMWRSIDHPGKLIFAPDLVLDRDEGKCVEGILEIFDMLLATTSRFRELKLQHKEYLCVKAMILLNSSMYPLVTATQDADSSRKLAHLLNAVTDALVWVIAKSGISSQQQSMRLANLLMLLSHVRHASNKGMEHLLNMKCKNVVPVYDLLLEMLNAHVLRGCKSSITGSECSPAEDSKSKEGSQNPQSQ

As to paclitaxel poliglumex [PPX], the “mechanism of uptake of intact PPX into the cellular compartment” value in data set [1] was “energy-dependent endocytosis, in a dose- and time-dependent manner”. For the same compound, the PPX antitumor activity result in data set [2] was “enhanced”. In addition, the “OS” value in data set [3] (FEMALE) is 285 days; in data set [3] (MALE), 220 days; in data set [3] (women under 55 years of age, PPX vs control arm), “prolonged”. The figures for the HR in data set [3] (FEMALE) and in data set [3] (MALE) were 0.70 and 1.05, respectively. Further, the entries for the “overall survival (OS)” value in data set [4] (women with postmenopausal (low) estrogen levels) and in data set [4] (women with premenopausal (high) estrogen levels) were “no apparent effect on survival” and “improved outcome”, respectively.

With `C[C@]12CC[C@@H]3c4ccc(O)cc4CC[C@H]3[C@@H]1CC[C@@H]2O` [17β estradiol, 17β Estradiol], in data set [5], the tumor weight entry was “increases”. Besides, in data set [6], the “ERβ activation and/or expression” value is reported as “induce ERβ activation and/or expression”. Further, in data set [7], the “cathepsin B activity” value is “increases”.
